Laboratory results: PubChem BioAssay (NCI)
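Following 48 hours of exposure in 96-well plates, responses at five concentrations were used to interpolate endpoints linearly. TGI denotes the concentration required for complete inhibition of growth.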

Tests used:
Assay in all cases: DTP human tumour cell line panel, 48 h
786-0 renal = test system: 786-0 renal
A498 renal = test system: A498 renal
A549 NSCLC = test system: A549 NSCLC
ACHN renal = test system: ACHN renal
CAKI-1 renal = test system: CAKI-1 renal
CCRF-CEM leukemia = test system: CCRF-CEM leukemia
COLO 205 colon = test system: COLO 205 colon
DLD-1 colon = test system: DLD-1 colon
DMS 114 small cell lung = test system: DMS 114 small cell lung
DMS 273 small cell lung = test system: DMS 273 small cell lung
EKVX NSCLC = test system: EKVX NSCLC
HCC-2998 colon = test system: HCC-2998 colon
HCT-116 colon = test system: HCT-116 colon
HCT-15 colon = test system: HCT-15 colon
HOP-18 NSCLC = test system: HOP-18 NSCLC
HOP-62 NSCLC = test system: HOP-62 NSCLC
HOP-92 NSCLC = test system: HOP-92 NSCLC
HT29 colon = test system: HT29 colon
IGROV1 ovarian = test system: IGROV1 ovarian
K-562 leukemia = test system: K-562 leukemia
KM12 colon = test system: KM12 colon
KM20L2 colon = test system: KM20L2 colon
LOX IMVI melanoma = test system: LOX IMVI melanoma
LXFL 529 NSCLC = test system: LXFL 529 NSCLC
M14 melanoma = test system: M14 melanoma
M19-MEL melanoma = test system: M19-MEL melanoma
MALME-3M melanoma = test system: MALME-3M melanoma
MOLT-4 leukemia = test system: MOLT-4 leukemia
NCI-H226 lung = test system: NCI-H226 lung
NCI-H23 lung = test system: NCI-H23 lung
NCI-H460 lung = test system: NCI-H460 lung
NCI-H522 lung = test system: NCI-H522 lung
OVCAR-3 ovarian = test system: OVCAR-3 ovarian
OVCAR-4 ovarian = test system: OVCAR-4 ovarian
OVCAR-5 ovarian = test system: OVCAR-5 ovarian
OVCAR-8 ovarian = test system: OVCAR-8 ovarian
RPMI-8226 leukemia = test system: RPMI-8226 leukemia
RXF 393 renal = test system: RXF 393 renal
RXF-631 renal = test system: RXF-631 renal
SF-268 CNS = test system: SF-268 CNS
SF-295 CNS = test system: SF-295 CNS
SF-539 CNS = test system: SF-539 CNS
SK-MEL-2 melanoma = test system: SK-MEL-2 melanoma
SK-MEL-28 melanoma = test system: SK-MEL-28 melanoma
SK-MEL-5 melanoma = test system: SK-MEL-5 melanoma
SK-OV-3 ovarian = test system: SK-OV-3 ovarian
SN12C renal = test system: SN12C renal
SNB-19 CNS = test system: SNB-19 CNS
SNB-75 CNS = test system: SNB-75 CNS
SNB-78 CNS = test system: SNB-78 CNS
SR leukemia = test system: SR leukemia
SW-620 colon = test system: SW-620 colon
TK-10 renal = test system: TK-10 renal
U251 CNS = test system: U251 CNS
UACC-257 melanoma = test system: UACC-257 melanoma
UACC-62 melanoma = test system: UACC-62 melanoma
UO-31 renal = test system: UO-31 renal
XF 498 CNS = test system: XF 498 CNS

Measured: TGI

C=C(C)[C@H]1CC[C@@]2(C)C(C1)[C@H](C)CC[C@@H]2O (stereo partly drawn)
> 100 µM: all assays above
